The text below walks through data of patent US20010021710A1, “NOVEL CIS-3,4-CHROMAN DERIVATIVES USEFUL IN THE PREVENTION OR TREATMENT OF ESTROGEN RELATED DISEASES OR SYNDROMES” (priority 1996, published 2001).

For the molecule `Oc1ccc2c(c1)OC[C@@H](c1ccc(F)cc1)[C@H]2c1ccc(OCCN2CCCC2)cc1` (racemic) [Example 7, (±)-cis-7-Hydroxy-3-(4-fluorophenyl)-4-(4-(2-pyrrolidinoethoxy)phenyl)chromane], the melting point fell in the range of 164 to 167 °C.

Consider `Oc1ccc2c(c1)OC[C@@H](c1ccc(F)cc1)[C@H]2c1ccc(OCCN2CCCCC2)cc1` (racemic) [Example 8, (±)-cis-7-Hydroxy-3-(4-fluorophenyl)-4-(4-(2-piperidinoethoxy)phenyl)-chromane], for which the melting point is 146 to 147 °C. For `Oc1ccc2c(c1)OC[C@@H](c1ccc(F)cc1)[C@H]2c1ccc(OCCCN2CCCCC2)cc1` (racemic) [Example 9, (±)-cis-7-Hydroxy-3-(4-fluorophenyl)-4-(4-(3-piperidinopropoxy)phenyl)chromane], the melting point fell in the range of 78 to 84 °C.

As to `Oc1ccc([C@@H]2COc3cc(O)ccc3[C@@H]2c2ccc(OCCN3CCCC3)cc2)cc1` (racemic) [Example 10, (±)-cis-7-Hydroxy-3-(4-hydroxyphenyl)-4-(4-(2-pyrrolidinoethoxy)phenyl)chromane], the melting point is 112 to 116 °C. Consider `Cc1ccc([C@@H]2COc3cc(O)ccc3[C@@H]2c2ccc(OCCN3CCCC3)cc2)cc1` (racemic) [Example 12, (±)-cis-7-Hydroxy-3-(4-methylphenyl)-4-(4-(2-pyrrolidinoethoxy)phenyl)chromane], for which the melting point was in the range of 161 to 165 °C. `Cc1ccc([C@@H]2COc3cc(O)ccc3[C@@H]2c2ccc(OCCN3CCCCC3)cc2)cc1` (racemic) [Example 13, (±)-cis-7-Hydroxy-3-(4-methylphenyl)-4-(4-(2-piperidinoethoxy)phenyl)chromane] came in with a melting point of 146 to 147.5 °C.

`Cc1cccc([C@@H]2COc3cc(O)ccc3[C@@H]2c2ccc(OCCN3CCCC3)cc2)c1` (racemic) [Example 16, (±)-cis-7-Hydroxy-3-(3-methylphenyl)-4-(4-(2-pyrrolidinoethoxy)phenyl)chromane]: the melting point was 85 to 90 °C.

Turning to `Oc1ccc2c(c1)OC[C@@H](c1cccc(F)c1)[C@H]2c1ccc(OCCN2CCCC2)cc1` (racemic) [Example 17, (±)-cis-3-(3-Fluorophenyl)-7-hydroxy-4-(4-(2-pyrrolidinoethoxy)phenyl)chromane], the melting point is 146 to 150 °C. Take `Oc1cccc([C@@H]2COc3cc(O)ccc3[C@@H]2c2ccc(OCCN3CCCCC3)cc2)c1` (racemic) [Example 19, (±)-cis-7-Hydroxy-3-(3-hydroxyphenyl)-4-(4-(2-piperidinoethoxy)phenyl)chromane]: the melting point was 144 °C (dec.).

Consider `Oc1ccc2c(c1)OC[C@@H](c1cccc(C(F)(F)F)c1)[C@H]2c1ccc(OCCN2CCCC2)cc1` (racemic) [Example 21, (±)-cis-7-Hydroxy-4-(4-(2-pyrrolidinoethoxy)phenyl)-3-(3-(trifluoromethyl)phenyl)-chromane], for which the melting point was in the range of 87 to 89 °C. For the molecule `Oc1ccc2c(c1)OC[C@@H](c1cccc(C(F)(F)F)c1)[C@H]2c1ccc(OCCN2CCCCC2)cc1` (racemic) [Example 22, (±)-cis-7-Hydroxy-4-(4-(2-piperidinoethoxy)phenyl)-3-(3-(trifluoromethyl)phenyl)-chromane], the melting point was 118 to 119 °C. For the molecule `Oc1ccc2c(c1)OC[C@@H](c1ccccc1F)[C@H]2c1ccc(OCCN2CCCC2)cc1` (racemic) [Example 23, (±)-cis-3-(2-Fluorophenyl)-7-hydroxy-4-(4-(2-pyrrolidinoethoxy)phenyl)chromane], the melting point is 190 °C (dec.).

For the molecule `Oc1ccc2c(c1)OC[C@@H](c1c(F)c(F)c(F)c(F)c1F)[C@H]2c1ccc(OCCN2CCCC2)cc1` (racemic) [Example 24, (±)-cis-7-Hydroxy-3-(2,3,4,5,6-pentafluorophenyl)-4-(4-(2-pyrrolidinoethoxy)phenyl)chromane], the melting point is 125 °C (dec.). With `Oc1ccc2c(c1)OC[C@@H](c1c(F)c(F)c(F)c(F)c1F)[C@H]2c1ccc(OCCN2CCCCC2)cc1` (racemic) [Example 25, (±)-cis-7-Hydroxy-3-(2,3,4,5,6-pentafluorophenyl)-4-(4-(2-piperidinoethoxy)phenyl)chromane] the figure was 174 °C (dec.); with `Oc1ccc2c(c1)OC[C@@H](c1ccc(C(F)(F)F)cc1)[C@H]2c1ccc(OCCN2CCCC2)cc1` [Example 1, (+)-cis-7-Hydroxy-4-(4-(2-pyrrolidinoethoxy)phenyl)-3-(4-(trifluoromethyl)phenyl)-chromane], 100 °C (dec.).
